{"source": "paper PMC5569447", "about": "(Iranian Journal of Basic Medical Sciences, 2017)", "tested_on": "Mtb strain H37Rv ATCC 27294", "conditions": "24 h", "note": "Peptide text beside a SMILES is read from it."}
{"compound": "NC(=O)CC[C@H](NC(=O)[C@@H]1CCCN1C(=O)[C@@H]1CCCN1)C(=O)O", "note": "[PPQ] (H-Pro-Pro-Gln-OH)", "values": [{"measurement": "MABA MIC", "value": ">800", "unit": "µM"}]}
